Measured values taken from US5525595A, “3- or 4-glycosyloxybenzopyran derivative and antiallergic agent containing the derivative as active ingredient” (priority 1993, dated 1996).

Tests used:
[1] = test system: airway resistance in experimental asthma model; assay: Effect on experimental asthma model in guinea pigs; assay type: in vivo, guinea pigs (Male hadley); conditions: Cavia porcellus, Table 7; for inhibition in vivo at 100 mg/kg: 100 mg/kg oral, OVA challenge, guinea pigs
Method in brief: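 Male Hartley guinea pigs sensitized i.p. with 5 mg ovalbumin three times weekly, challenged 2 weeks later by 1 min inhalation of 1% OVA. Compounds dosed orally at 100 mg/kg in 0.5% CMCNa; airway resistance recorded 30 min, inhibition % from maximum resistance versus vehicle (n=5).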

[2] = background statement; cited from earlier work
[3] = test system: homologous passive cutaneous anaphylaxis (PCA) reaction; assay: Effect on homologous passive cutaneous anaphylaxis (PCA) reaction in rats; assay type: in vivo, rats (Male wistar rats); conditions: Rattus norvegicus, 0.5 h; 100 mg/kg oral, 1 hour before antigen, rats; Table 3
Method in brief: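 Male Wistar rats (9 weeks) sensitized intradermally with anti-TNP-ascaris serum; 48 h later compounds dosed orally at 100 mg/kg in 0.5% CMCNa, n=5 per group. Challenge 1 h post-dose with i.v. TNP-As plus Evans Blue; blue-spot diameter measured at 30 min, inhibition calculated versus vehicle group.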

[4] = test system: contact dermatitis induced by picryl chloride; assay: Effect on contact dermatitis induced by picryl chloride in mice (delayed type hypersensitization); assay type: in vivo; conditions: Mus musculus; 100 mg/kg oral, ear thickness 24 hours after challenge; Table 6; read-out: Inhibition (%) against the increase of ear thickness
Method in brief: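 Mice sensitized on abdomen with 7 mg picryl chloride, ear-challenged 7 days later with 1% picryl chloride; compounds dosed orally at 100 mg/kg in 0.5% CMCNa 1 h before and 16 h after challenge.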

| SMILES | inhibition in vivo at 20 mg/kg ([1]; iv, positive control DSCG 20 mg/kg injected into the vein) | gastrointestinal absorbability [2] | inhibition in vivo at 100 mg/kg [3] | inhibition in vivo at 100 mg/kg [4] | inhibition in vivo at 100 mg/kg [1] |
| --- | --- | --- | --- | --- | --- |
| O=C(O)c1cc(=O)c2c(OCC(O)COc3cccc4oc(C(=O)O)cc(=O)c34)cccc2o1 [DSCG, reference compound] | 50.5% | extremely poor |  |  |  |
| CCCCOc1ccc2c(O[C@H]3O[C@H](CO)[C@@H](O)[C@H](O)[C@@H]3O)c(O)c(=O)oc2c1 [compound 79] |  |  | 47.1% | 46.3% | 50.3% |
| CCC=CCCOc1ccc2c(O)c(O[C@@H]3O[C@H](CO)[C@H](O)[C@H](O)[C@H]3O)c(=O)oc2c1 [compound 37] |  |  | 59.5% | 58.3% | 72.4% |
| CCCCOc1ccc2c(O[C@@H]3O[C@H](CO)[C@@H](O)[C@H](O)[C@H]3O)c(OC(C)=O)c(=O)oc2c1 [compound 74] |  |  | 46.8% | 47% | 55.4% |
| COc1ccc2c(OCc3ccccc3)c(O[C@@H]3O[C@H](COC(C)=O)[C@H](OC(C)=O)[C@H](OC(C)=O)[C@H]3OC(C)=O)c(=O)oc2c1 [compound 7, 7-methoxy-4-benzyloxy-3-(tetra-O-acetyl-β-D-galactopyranosyloxy)-2H-1-benzopyran-2-one] |  |  | 41.1% | 40.3% | 43.7% |
| CCCCCCCCCCCCOc1ccc2c(O)c(O[C@@H]3O[C@H](CO)[C@H](O)[C@H](O)[C@H]3O)c(=O)oc2c1 [compound 35] |  |  | 60.1% | 61.1% | 75.2% |
| CCC=CCCOc1ccc2c(O[C@H]3O[C@H](CO)[C@@H](O)[C@H](O)[C@@H]3O)c(O)c(=O)oc2c1 [compound 84] |  |  | 45.5% | 46.3% | 47.1% |
| CCCCOc1ccc2c(O[C@@H]3O[C@H](CO)[C@H](O)[C@H](O)[C@H]3O)c(OC(C)=O)c(=O)oc2c1 [compound 102] |  |  | 46.3% | 46.3% | 50.3% |
| O=c1oc2cc(O)ccc2c(O)c1O[C@@H]1O[C@H](CO)[C@@H](O)[C@H](O)[C@H]1O [compound 14] |  |  | 50.2% | 47.5% | 52.3% |
| CC(C)=CCC/C(C)=C/COc1ccc2c(O[C@H]3O[C@H](CO)[C@@H](O)[C@H](O)[C@@H]3O)c(O)c(=O)oc2c1 [compound 85] |  |  | 47.6% | 47.2% | 48.5% |
| CC(=O)Oc1ccc2c(O)c(O[C@@H]3O[C@H](CO)[C@@H](O)[C@H](O)[C@H]3O)c(=O)oc2c1 [compound 13, 7-acetoxy-4-hydroxy-3-(β-D-glucopyranosyloxy)-2H-1-benzopyran-2-one] |  |  | 58.7% | 50.4% | 57.7% |
| CCCCOc1ccc2c(O)c(O[C@@H]3O[C@H](CO)[C@@H](O)[C@H](O)[C@H]3O)c(=O)oc2c1 [compound 15] |  |  | 60.4% | 58.5% | 73.6% |
| COc1ccc2c(O[C@@H]3O[C@H](CO)[C@@H](O)[C@H](O)[C@H]3O)c(O)c(=O)oc2c1 [compound 61, 7-methoxy-3-hydroxy-4-(β-D-glucopyranosyloxy)-2H-1-benzopyran-2-one] |  |  | 49.2% | 50.7% | 53.3% |
| O=C(Oc1ccc2c(O)c(O[C@H]3O[C@H](CO)[C@@H](O)[C@H](O)[C@@H]3O)c(=O)oc2c1)c1ccccc1 [compound 30] |  |  | 41.7% | 48.7% | 47.8% |
| O=c1oc2cc(OCc3ccccc3)ccc2c(O)c1O[C@H]1O[C@H](CO)[C@@H](O)[C@H](O)[C@@H]1O [compound 31] |  |  | 46.9% | 48.6% | 53.5% |
| CCCCOc1ccc2c(O)c(O[C@H]3O[C@H](CO)[C@@H](O)[C@H](O)[C@@H]3O)c(=O)oc2c1 [compound 24] |  |  | 54.3% | 52.6% | 58.3% |
| CCCCOc1ccc2c(O)c(O[C@@H]3O[C@H](CO)[C@H](O)[C@H](O)[C@H]3O)c(=O)oc2c1 [compound 33] |  |  | 57.2% | 62.5% | 68.1% |
| O=c1oc2cc(O)ccc2c(O[C@@H]2O[C@H](CO)[C@H](O)[C@H](O)[C@H]2O)c1O [compound 91] |  |  | 40.4% | 45.5% | 45.1% |
| CC(C)=CCC/C(C)=C/COc1ccc2c(O[C@@H]3O[C@H](CO)[C@H](O)[C@H](O)[C@H]3O)c(O)c(=O)oc2c1 [compound 99] |  |  | 58.6% | 59.4% | 77.7% |
